Activity calls are given as the source filed them. The rule behind the calls is not given here.

The experiment concerns U-937. In words: Induction of apoptosis in human U937 cells. The class given is functional, cell-based.

Turning to `N#CC(=O)NCCCOc1c(Br)cc(C(O)CN)cc1Br` (centres undefined), the result was inactive. The entry for `C[N+](C)(C)CCc1cc(Br)c(O)c(Br)c1` is “inactive”; for `NCCCOc1c(Br)cc(CCN)cc1Br` it is “inactive”. Turning to `N#CC(=O)NCCCOc1c(Br)cc(CCN)cc1Br`, the outcome was inactive.

These data come from ChEMBL document CHEMBL1144079, “7-Hydroxyceratinamine, a new cyanoformamide-containing metabolite from a sponge, Aplysinella sp” (J Nat Prod, 1999).
